# Source: patent US8952024B2, “Herbicidal pyrimidone derivatives” (E I du Pont de Nemours and Company, priority 2009, dated 2015)
# Read-outs that look alike come from different tables or passages of the source.
# How the values were obtained:
# Type in all cases: in vivo
# [1] = tested on: wheat (Triticum aestivum); experiment: Test B pre-/postemergence plant response
# Summary of the method: (§1)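 Seeds were sown in loam soil/sand blend and treated preemergence with compound in non-phytotoxic solvent mixture containing surfactant; postemergence sprays, same formulation, went onto plants 2 to 18 cm (1- to 4-leaf stage) in peat-based planting medium. Greenhouse 13 to 15 days, then visual rating versus untreated controls, 0 (no effect) to 100 (complete control).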
# [2] = tested on: cocklebur (Xanthium strumarium); experiment: Test B pre-/postemergence plant response
# Summary of the method: as §1
# [3] = tested on: bermudagrass (Cynodon dactylon); experiment: Test B pre-/postemergence plant response
# Summary of the method: as §1
# [4] = tested on: barnyardgrass (Echinochloa crus-galli); experiment: Test A pre-/postemergence plant response; settings: Echinochloa crus-galli, 240 h, read-out: Plant response rating, Barnyardgrass; for pest or weed control at 125 g/ha: 125 g ai/ha; for pest or weed control at 500 g/ha: 500 g ai/ha, approx. ten days
# Summary of the method: (§2)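 Injury was scored visually after roughly ten days against untreated controls, 0 = no effect, 100 = complete control. Test chemicals in a surfactant-containing non-phytotoxic solvent were sprayed either onto soil preemergence or onto one- to two-leaf, 2–10 cm plants postemergence.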
# [5] = tested on: pigweed (Amaranthus retroflexus); experiment: Test A pre-/postemergence plant response; settings: Amaranthus retroflexus, 240 h, read-out: Plant response rating, Pigweed; for pest or weed control at 125 g/ha: 125 g ai/ha; for pest or weed control at 500 g/ha: 500 g ai/ha, approx. ten days
# Summary of the method: as §2
# corn (Zea mays) = experiment: Test A pre-/postemergence plant response; settings: Zea mays, 240 h; for Corn plant response rating (crop injury, 0 = no effect, 100 = complete kill) at 125 g/ha: 125 g ai/ha; for Corn plant response rating (crop injury, 0 = no effect, 100 = complete kill) at 500 g/ha: 500 g ai/ha, approx. ten days
# Summary of the method: as §2
# [6] = tested on: large crabgrass (Digitaria sanguinalis); experiment: Test A pre-/postemergence plant response; settings: Digitaria sanguinalis, 240 h, read-out: Plant response rating, Crabgrass, Large; for pest or weed control at 125 g/ha: 125 g ai/ha; for pest or weed control at 500 g/ha: 500 g ai/ha, approx. ten days
# Summary of the method: as §2
# [7] = tested on: wheat (Triticum aestivum); experiment: Test A pre-/postemergence plant response; settings: Triticum aestivum, 240 h, read-out: Plant response rating, Wheat; for plant injury at 125 g/ha: 125 g ai/ha; for plant injury at 500 g/ha: 500 g ai/ha, approx. ten days
# Summary of the method: as §2
# [8] = tested on: giant foxtail (Setaria faberii); experiment: Test A pre-/postemergence plant response; settings: Setaria faberi, 240 h, read-out: Plant response rating, Foxtail, Giant; for pest or weed control at 125 g/ha: 125 g ai/ha; for pest or weed control at 500 g/ha: 500 g ai/ha, approx. ten days
# Summary of the method: as §2
# [9] = tested on: morningglory (Ipomoea spp.); experiment: Test A pre-/postemergence plant response; settings: Ipomoea, 240 h, read-out: Plant response rating, Morningglory; for pest or weed control at 125 g/ha: 125 g ai/ha
# Summary of the method: as §2
# [10] = tested on: velvetleaf (Abutilon theophrasti); experiment: Test A pre-/postemergence plant response; settings: Abutilon theophrasti, 240 h, read-out: Plant response rating, Velvetleaf; for pest or weed control at 125 g/ha: 125 g ai/ha; for pest or weed control at 500 g/ha: 500 g ai/ha, approx. ten days
# Summary of the method: as §2
# [11] = 62 g ai/ha, postemergence, 0 is no effect, 100 is complete control, 13 to 15 days
# [12] = post-emergence, Postemergence, 0 to 100 scale where 0 is no effect and 100 is complete control
# [13] = post-emergence, Postemergence, 0 to 100 scale, 0 = no effect, 100 = complete control
# [14] = pre-emergence, Preemergence, 0 to 100 scale, 0 = no effect, 100 = complete control
# [15] = pre-emergence, Preemergence, visual injury, 0 to 100 scale (0 no effect, 100 complete control)
smiles,measurement,setting,value
"O=C1CCCC(O)=C1C(=O)c1cnc(-c2ccccc2)n(C2CCCCC2)c1=O [Compound 128, 3-cyclohexyl-5-[(2-hydroxy-6-oxo-1-cyclohexen-1-yl)carbonyl]-2-phenyl-4(3H)-pyrimidinone]",Wheat plant response rating (0 to 100 scale),[1]; [11],0
same,plant injury at 31 g/ha,"[1]; Triticum aestivum, post-emergence, Postemergence, 31 g ai/ha, 0 to 100 scale (0 no effect, 100 complete control), read-out: Plant response rating, Wheat",0%
same,plant injury at 125 g/ha,"[1]; Triticum aestivum, post-emergence, Postemergence, 125 g ai/ha, scale 0 to 100 (0 no effect, 100 complete control), read-out: Plant response rating, Wheat",0%
same,plant injury at 250 g/ha,"[1]; Triticum aestivum, post-emergence, Postemergence, 250 g ai/ha, scale 0 to 100 (0 no effect, 100 complete control), 13 to 15 days, read-out: Plant response rating, Wheat",5%
same,Cocklebur plant response rating (0 to 100 scale),[2]; [11],98
same,pest or weed control at 31 g/ha,"[2]; Xanthium strumarium, post-emergence, Postemergence, 31 g ai/ha, 0 to 100 scale (0 no effect, 100 complete control), read-out: Plant response rating, Cocklebur",98%
same,pest or weed control at 125 g/ha,"[2]; Xanthium strumarium, post-emergence, Postemergence, 125 g ai/ha, scale 0 to 100 (0 no effect, 100 complete control), read-out: Plant response rating, Cocklebur",100%
same,pest or weed control at 250 g/ha,"[2]; Xanthium strumarium, post-emergence, Postemergence, 250 g ai/ha, scale 0 to 100 (0 no effect, 100 complete control), 13 to 15 days, read-out: Plant response rating, Cocklebur",100%
same,Bermudagrass plant response rating (0 to 100 scale),[3]; [11],85
same,pest or weed control at 31 g/ha,"[3]; Cynodon dactylon, post-emergence, Postemergence, 31 g ai/ha, 0 to 100 scale (0 no effect, 100 complete control), read-out: Plant response rating, Bermudagrass",75%
same,pest or weed control at 125 g/ha,"[3]; Cynodon dactylon, post-emergence, Postemergence, 125 g ai/ha, scale 0 to 100 (0 no effect, 100 complete control), read-out: Plant response rating, Bermudagrass",98%
same,pest or weed control at 250 g/ha,"[3]; Cynodon dactylon, post-emergence, Postemergence, 250 g ai/ha, scale 0 to 100 (0 no effect, 100 complete control), 13 to 15 days, read-out: Plant response rating, Bermudagrass",100%
same,pest or weed control at 125 g/ha,[4]; [12],100%
same,pest or weed control at 500 g/ha,[4]; [13],100%
same,pest or weed control at 125 g/ha,[4]; [14],10%
same,pest or weed control at 500 g/ha,[4]; [15],100%
same,pest or weed control at 125 g/ha,[5]; [12],100%
same,pest or weed control at 500 g/ha,[5]; [13],100%
same,pest or weed control at 125 g/ha,[5]; [14],80%
same,pest or weed control at 500 g/ha,[5]; [15],100%
same,"Corn plant response rating (crop injury, 0 = no effect, 100 = complete kill) at 125 g/ha",corn (Zea mays); [12],20%
same,"Corn plant response rating (crop injury, 0 = no effect, 100 = complete kill) at 500 g/ha",corn (Zea mays); [13],60%
same,"Corn plant response rating (crop injury, 0 = no effect, 100 = complete kill) at 125 g/ha",corn (Zea mays); [14],0%
same,"Corn plant response rating (crop injury, 0 = no effect, 100 = complete kill) at 500 g/ha",corn (Zea mays); [15],0%
same,pest or weed control at 125 g/ha,[6]; [12],90%
same,pest or weed control at 500 g/ha,[6]; [13],90%
same,pest or weed control at 125 g/ha,[6]; [14],80%
same,pest or weed control at 500 g/ha,[6]; [15],100%
same,plant injury at 125 g/ha,[7]; [12],0%
same,plant injury at 500 g/ha,[7]; [13],20%
same,plant injury at 125 g/ha,[7]; [14],0%
same,plant injury at 500 g/ha,[7]; [15],30%
same,pest or weed control at 125 g/ha,[8]; [12],90%
same,pest or weed control at 500 g/ha,[8]; [13],90%
same,pest or weed control at 125 g/ha,[8]; [14],60%
same,pest or weed control at 500 g/ha,[8]; [15],90%
same,pest or weed control at 125 g/ha,[9]; [12],100%
same,pest or weed control at 500 g/ha,"[9]; post-emergence, Postemergence, 500 g ai/ha, 0 to 100 scale, 0 = no effect, 100 = complete control, approx. ten days",100%
same,pest or weed control at 125 g/ha,[9]; [14],80%
same,pest or weed control at 125 g/ha,[10]; [12],100%
same,pest or weed control at 500 g/ha,[10]; [13],100%
same,pest or weed control at 125 g/ha,[10]; [14],80%
same,pest or weed control at 500 g/ha,[10]; [15],100%
